Reference: PubChem BioAssay (NCI)
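How tested: cells in 96-well plates exposed to compound for 48 hours at five concentrations. Definition used: TGI = concentration required for complete inhibition of growth.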

Tests used:
Assay in all cases: NCI anticancer screen, dose series, 48 h
TK-10 renal = system: TK-10 renal
UACC-62 melanoma = system: UACC-62 melanoma
786-0 renal = system: 786-0 renal
MCF7 breast = system: MCF7 breast
CCRF-CEM leukemia = system: CCRF-CEM leukemia
NCI-H23 lung = system: NCI-H23 lung
ACHN renal = system: ACHN renal
HL-60(TB) leukemia = system: HL-60(TB) leukemia
SNB-19 CNS = system: SNB-19 CNS
SN12C renal = system: SN12C renal
SK-OV-3 ovarian = system: SK-OV-3 ovarian
HCT-116 colon = system: HCT-116 colon
MDA-MB-231 breast = system: MDA-MB-231 breast
SK-MEL-2 melanoma = system: SK-MEL-2 melanoma
OVCAR-8 ovarian = system: OVCAR-8 ovarian
K-562 leukemia = system: K-562 leukemia
OVCAR-4 ovarian = system: OVCAR-4 ovarian
DU-145 prostate = system: DU-145 prostate
HS 578T breast = system: HS 578T breast
SR leukemia = system: SR leukemia
MDA-N = system: MDA-N
T-47D breast = system: T-47D breast
NCI-H226 lung = system: NCI-H226 lung
A498 renal = system: A498 renal
SF-295 CNS = system: SF-295 CNS
KM12 colon = system: KM12 colon
SF-268 CNS = system: SF-268 CNS
UO-31 renal = system: UO-31 renal
UACC-257 melanoma = system: UACC-257 melanoma
NCI-H522 lung = system: NCI-H522 lung
CAKI-1 renal = system: CAKI-1 renal
HCT-15 colon = system: HCT-15 colon
SK-MEL-28 melanoma = system: SK-MEL-28 melanoma
HOP-92 NSCLC = system: HOP-92 NSCLC
HOP-62 NSCLC = system: HOP-62 NSCLC
HT29 colon = system: HT29 colon
OVCAR-5 ovarian = system: OVCAR-5 ovarian
NCI/ADR-RES ovarian = system: NCI/ADR-RES ovarian
U251 CNS = system: U251 CNS
NCI-H460 lung = system: NCI-H460 lung
MOLT-4 leukemia = system: MOLT-4 leukemia
RXF 393 renal = system: RXF 393 renal
SNB-75 CNS = system: SNB-75 CNS
M14 melanoma = system: M14 melanoma
PC-3 prostate = system: PC-3 prostate
IGROV1 ovarian = system: IGROV1 ovarian
MDA-MB-435 = system: MDA-MB-435
MALME-3M melanoma = system: MALME-3M melanoma
LOX IMVI melanoma = system: LOX IMVI melanoma
SK-MEL-5 melanoma = system: SK-MEL-5 melanoma
A549 NSCLC = system: A549 NSCLC
COLO 205 colon = system: COLO 205 colon
EKVX NSCLC = system: EKVX NSCLC
HCC-2998 colon = system: HCC-2998 colon
RPMI-8226 leukemia = system: RPMI-8226 leukemia
SF-539 CNS = system: SF-539 CNS
BT-549 breast = system: BT-549 breast
OVCAR-3 ovarian = system: OVCAR-3 ovarian
SW-620 colon = system: SW-620 colon

C=CC1(O)CCCC=C1COCc1ccccc1 (configuration not stated)
TGI (TK-10 renal): > 100 µM | TGI (UACC-62 melanoma): > 100 µM | TGI (786-0 renal): > 100 µM | TGI (MCF7 breast): > 100 µM | TGI (CCRF-CEM leukemia): > 100 µM | TGI (NCI-H23 lung): > 100 µM | TGI (ACHN renal): > 100 µM | TGI (HL-60(TB) leukemia): 72.2 µM | TGI (SNB-19 CNS): > 100 µM | TGI (SN12C renal): > 100 µM | TGI (SK-OV-3 ovarian): > 100 µM | TGI (HCT-116 colon): > 100 µM | TGI (MDA-MB-231 breast): > 100 µM | TGI (SK-MEL-2 melanoma): > 100 µM | TGI (OVCAR-8 ovarian): > 100 µM | TGI (K-562 leukemia): > 100 µM | TGI (OVCAR-4 ovarian): > 100 µM | TGI (DU-145 prostate): > 100 µM | TGI (HS 578T breast): > 100 µM | TGI (SR leukemia): 57 µM | TGI (MDA-N): > 100 µM | TGI (T-47D breast): > 100 µM | TGI (NCI-H226 lung): > 100 µM | TGI (A498 renal): > 100 µM | TGI (SF-295 CNS): > 100 µM | TGI (KM12 colon): > 100 µM | TGI (SF-268 CNS): > 100 µM | TGI (UO-31 renal): > 100 µM | TGI (UACC-257 melanoma): > 100 µM | TGI (NCI-H522 lung): 32.4 µM | TGI (CAKI-1 renal): > 100 µM | TGI (HCT-15 colon): > 100 µM | TGI (SK-MEL-28 melanoma): > 100 µM | TGI (HOP-92 NSCLC): > 100 µM | TGI (HOP-62 NSCLC): > 100 µM | TGI (HT29 colon): > 100 µM | TGI (OVCAR-5 ovarian): > 100 µM | TGI (NCI/ADR-RES ovarian): > 100 µM | TGI (U251 CNS): > 100 µM | TGI (NCI-H460 lung): > 100 µM | TGI (MOLT-4 leukemia): 66.7 µM | TGI (RXF 393 renal): > 100 µM | TGI (SNB-75 CNS): > 100 µM | TGI (M14 melanoma): > 100 µM | TGI (PC-3 prostate): > 100 µM | TGI (IGROV1 ovarian): 35.3 µM | TGI (MDA-MB-435): > 100 µM | TGI (MALME-3M melanoma): > 100 µM | TGI (LOX IMVI melanoma): 40.7 µM | TGI (SK-MEL-5 melanoma): > 100 µM | TGI (A549 NSCLC): > 100 µM | TGI (COLO 205 colon): > 100 µM | TGI (EKVX NSCLC): > 100 µM | TGI (HCC-2998 colon): > 100 µM | TGI (RPMI-8226 leukemia): 68.3 µM

CCCCOCCOCCOC1=C(Cl)C(=O)c2c(O)ccc(O)c2C1=O
TGI (TK-10 renal): 2.63 µM | TGI (UACC-62 melanoma): 3.47 µM | TGI (786-0 renal): 3.4 µM | TGI (SF-539 CNS): 2.84 µM | TGI (CCRF-CEM leukemia): 0.555 µM | TGI (NCI-H23 lung): 2.92 µM | TGI (ACHN renal): 3.11 µM | TGI (SNB-19 CNS): 3.2 µM | TGI (SN12C renal): 2.96 µM | TGI (SK-OV-3 ovarian): 14.8 µM | TGI (HCT-116 colon): 1.41 µM | TGI (MDA-MB-231 breast): 1.32 µM | TGI (OVCAR-8 ovarian): 7.43 µM | TGI (OVCAR-4 ovarian): 1.38 µM | TGI (DU-145 prostate): 3.16 µM | TGI (HS 578T breast): 5.86 µM | TGI (SR leukemia): 0.117 µM | TGI (MDA-N): 2.03 µM | TGI (T-47D breast): 2.52 µM | TGI (NCI-H226 lung): 3.21 µM | TGI (A498 renal): 4.95 µM | TGI (SF-295 CNS): 3.13 µM | TGI (KM12 colon): 3.6 µM | TGI (SF-268 CNS): 2.11 µM | TGI (UO-31 renal): 2.68 µM | TGI (UACC-257 melanoma): 2.6 µM | TGI (CAKI-1 renal): 0.388 µM | TGI (HCT-15 colon): 1.11 µM | TGI (SK-MEL-28 melanoma): 1.41 µM | TGI (HOP-92 NSCLC): 0.437 µM | TGI (HOP-62 NSCLC): 2.53 µM | TGI (HT29 colon): 1.25 µM | TGI (OVCAR-5 ovarian): 5.33 µM | TGI (NCI/ADR-RES ovarian): 7.49 µM | TGI (U251 CNS): 6.72 µM | TGI (NCI-H460 lung): 4.4 µM | TGI (MOLT-4 leukemia): 0.1 µM | TGI (RXF 393 renal): 2.05 µM | TGI (SNB-75 CNS): 1.25 µM | TGI (M14 melanoma): 0.317 µM | TGI (PC-3 prostate): 3.19 µM | TGI (IGROV1 ovarian): 2.78 µM | TGI (BT-549 breast): 2.72 µM | TGI (LOX IMVI melanoma): 1.75 µM | TGI (SK-MEL-5 melanoma): 1.53 µM | TGI (A549 NSCLC): 4.14 µM | TGI (COLO 205 colon): 0.756 µM | TGI (EKVX NSCLC): 6.96 µM | TGI (OVCAR-3 ovarian): 2.08 µM | TGI (SW-620 colon): 1.75 µM | TGI (HCC-2998 colon): 4.79 µM | TGI (RPMI-8226 leukemia): 1.32 µM
